Measured values reported in paper PMC4357015, “Structure, Function and Inhibition of the Phosphoethanolamine Methyltransferases of the Human Malaria Parasites Plasmodium vivax and Plasmodium knowlesi” (Scientific Reports, 2015).

Assays:
PfPMT = system: PfPMT; design: method as in PMID 20085640, PMID 24145416; conditions: cited from earlier work
PkPMT = target: T1, PkPMT (Plasmodium knowlesi, UniProt A0A384KJX3); test: radiometric PMT transmethylation assay, inhibition of PkPMT; assay type: biochemical; conditions: P-Etn 2 mM, SAM 1.5 mM; inhibitor 0, 100, 500, 1000 μM; read-out: IC50, inhibition of PkPMT activity
T1 sequence (A0A384KJX3 1-264): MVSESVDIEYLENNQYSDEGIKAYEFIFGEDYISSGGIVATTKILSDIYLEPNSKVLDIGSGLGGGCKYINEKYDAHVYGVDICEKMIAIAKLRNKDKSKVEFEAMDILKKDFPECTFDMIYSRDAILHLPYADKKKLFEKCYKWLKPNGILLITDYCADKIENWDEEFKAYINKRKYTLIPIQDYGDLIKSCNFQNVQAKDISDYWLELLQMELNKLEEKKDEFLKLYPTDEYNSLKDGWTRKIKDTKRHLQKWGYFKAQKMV
Protocol: Figure 3 Amodiaquine (AQ) and NSC158011 inhibit the activity of PvPMT and PkPMT. Enzyme inhibition assays with different concentrations of Amodiaquine (AQ), NSC158011 and Chloroquine (CQ) were carried out at constant P-Etn (2 mM) and SAM (1.5 mM) concentrations. The activity in the absence of any drug was taken as 100% and % enzyme activity was calculated in the presence of different drug concentrations (100, 500, 1000 μM). To determine the concentration that results in 50% inhibition of enzyme activity (IC50), the data were fitted to a non-linear regression analysis in the following equation Y = 100/(1 + ([X]/IC50)), where Y is % enzyme activity and X is drug concentration using Graph pad software.
For enzyme kinetics studies recombinant histidine-tagged proteins were expressed using 1 mM IPTG for 4 h, purified using Ni-affinity purification and dialyzed. As expected, purified proteins migrated in SDS-PAGE gels at approximately 31 kDa. The purified proteins were stored in HEPES-KOH buffer (pH 7.4) at 4°C and were assayed within a month of purification. During this time, the integrity of the protein was assessed by SDS-PAGE. The kinetic properties of enzymes were assessed using radiometric assay wherein incorporation of radioactive labeled methyl donor (100nCi [methyl-^14C] SAM, Perkin elmer NEC363010UC) or (200nCi [methyl-^3H] SAM, Perkin Elmer NET155H250UC) was measured. […]

pem1Δpem2Δ-pYES2.1-PkPMT = test: yeast growth inhibition, pem1Δpem2Δ strain expressing PkPMT; assay type: cell-based; conditions: 100 μM AQ
Protocol: Figure 5 PMT-dependent inhibition of growth and PC biosynthesis by amodiaquine and NSC158011. (A–C): Growth curves of pem1Δpem2Δ-pYES2.1-PkPMT (A), pem1Δpem2Δ-pYES2.1-PvPMT (B), or Wild Type-pYES2.1- (C) strains grown in minimal medium containing 4% galactose and 1 mM ethanolamine in the presence or absence of 100 μM choline and 100 μM amodiaquine (AQ) as indicated. Growth curves of pem1Δpem2Δ-pYES2.1-PkPMT (D), pem1Δpem2Δ-pYES2.1-PvPMT (E), or Wild Type-pYES2.1- (F) strains maintained in minimal medium containing 4% galactose and 1 mM ethanolamine in the presence or absence of 100 μM choline and 10 μM NSC158011.
pem1Δpem2Δ-pYES2.1, pem1Δpem2Δ-pYES2.1-PkPMT, pem1Δpem2Δ-pYES2.1-PvPMT, and pem1Δpem2Δ-pYES2.1-PfPMT yeast strains were pre-grown overnight in uracil dropout synthetic galactose (4%) (SG-URA) medium supplemented with 2 mM ethanolamine (Etn). Cells were diluted to an A600 = 0.001 in fresh SG-URA medium supplemented with 2 mM Etn in the presence or absence of 100 μM Choline (Cho). Cells were grown at 30°C and the growth was monitored by measuring the A600. […]

## CCN(CC)Cc1cc(Nc2ccnc3cc(Cl)ccc23)ccc1O [AQ, amodiaquine]
PfPMT
  mode of inhibition of PfPMT: non-competitive inhibitors
PkPMT
  IC50: 398 µM
pem1Δpem2Δ-pYES2.1-PkPMT; 100 μM choline
  growth of pem1Δpem2Δ+PkPMT strain in media supplemented with choline: no effect
pem1Δpem2Δ-pYES2.1-PkPMT; ethanolamine medium without choline
  growth of pem1Δpem2Δ+PkPMT strain: significantly inhibited
